{
  "source": "patent US9618513B2",
  "about": "“Compositions and methods for detecting and treating colorectal cancer” (The Regents of the University of Michigan, priority 2014, dated 2017)",
  "type_in_all_cases": "cell-based, human",
  "key": {"[1]": {"tested_on": "STAT3 occupancy on gene promoters", "experiment": "STAT3-ChIP assay", "protocol": "(A) IL-22 induced STAT3 phosphorylation. Colon cancer cells were treated with IL-22 for different time points. The protein levels of phosphorylated STAT3 and STAT3 were detected by Western blotting. (B, C) IL-22 induced colon cancer spheres via STAT3. Sphere assay was performed with shSTAT3 colon cancer cells in the presence of IL-22. Results were shown as sphere images (b) and the mean numbers of spheres in triplicate (c). (n=5. P<0.01). (D-F) IL-22 stimulated colon cancer sternness gene expression via STAT3. Colon cancer cells expressing shSTAT3 or scrambled vector were cultured with IL-22. Stem cell core gene mRNAs were detected by real-time PCR after 6 hours (n=5, *P<0.05). (G, H) IL-22 causes STAT3 occupancy on SOX2 promoter areas. STAT3-ChIP assay was performed in DLD-1 cells cultured with or without IL-22. One of at least three experiments is shown.\n(A-C)IL-22 increases STAT3 occupancy on the DOT1L (A), AFF4 (B), and MLLT3 (C) proximal promoter. STAT3-ChIP assay was performed in DLD-1 colon cancer cells cultured with or without IL-22. One of three experiments is shown. (D-F) STAT3 knock down reduces H3K79me2 occupancy at proximal promoters of core stem cell genes. H3K79me2-ChIP was performed in colon cancer cells cultured with IL-22 for 24 hours. One of three experiments is shown.\nA. The protein level of phosphorylated STAT3, STAT1 and STATS were activated by IL-22. B. The effect of STAT3 knock down. C. The effect of IL-22 on cell proliferation was analyzed using H^3 Thymidine Incorporation in Stat3 knock down cells. D. Knock down of STAT3 reduced the expression of EZH2 and SUZ12. E. Based on the ENCODE STAT3-ChIP-Seq data base, STAT3 occupancy on the promoter areas of SUZ12 and EED is shown. F. SUZ12/EED DNA was detected by ChIP assay using an antibody against STAT3, c-fos was used as a positive control.\nChIP assay was performed according to the protocol with exceptions stated below (Upstate, Millipore; http://www. (followed by) millipore.com/techpublications/tech1/mcproto407). Crosslinking was performed with 1% formaldehyde or 1% paraformaldehyde for 10 minutes. […]"}, "DOT1L, AFF4, MLLT10": {"tested_on": "DOT1L, AFF4, MLLT10", "experiment": "DOT1L complex gene expression by real-time PCR", "details": "DLD-1 and primary colon cancer cells, IL-22 12 hours", "protocol": "(A) IL-22 induces H3K79me2 in colon cancer cells. Colon cancer cells were treated with IL-22 for 48 hours. Total histone modifications were analyzed by western blot. (B, C) DOT1L inhibitor, EPZ004777 suppresses colon cancer sphere formation induced by IL-22. Colon cancer sphere assay was performed in the presence of IL-22 and EPZ004777. Sphere numbers were recorded. DLD-1 cells (B), primary colon cancer cells (C). (n=5, P<0.05). (D, E) IL-22 stimulates DOT1L complex gene expression. Colon cancer cells were cultured for 12 hours with IL-22. DOT1L complex gene expression was quantified by real-time PCR. DLD-1 cells (D), primary colon cancer cells (E). (n=3, P<0.05). (F) DOT1L knock down results in reduced colon cancer sphere formation induced by IL-22. Colon cancer sphere assay was performed with colon cancer cells expressing sh-DOT1L or vector in the presence of IL-22. Sphere numbers were recorded. (n=5, P<0.05). (G-I), IL-22 causes higher occupancy of H3K79me2 on core stem cell gene promoters. H3K79me2-ChIP assay was performed in DLD-1 colon cancer cells cultured with IL-22. One of 3 experiments is shown. […]\nThe mRNA was quantified by real-time RT-PCR. […] SYBR Green Master Mix was used to detect fluorescence. Relative expression was calculated according to the Ct value with normalization to GAPDH."}, "[2]": {"tested_on": "cyclin-dependent kinase inhibitors, cyclins and CDK4 in DLD-1", "experiment": "Cell cycle gene expression by real-time PCR", "source_text": "A. GSEA analysis identifies proliferation pathways have positive correlation with IL-22. B. Cell proliferation maker Ki67 was detected by FACS. C. H^3 Thymidine Incorporation was used to detect the function of IL-22 in cell proliferation. D. Cell number was counted after stimulated with IL-22. E. Cells isolated from colon cancer tissue (Tumor cells and Leukocytes) were stimulated with a-CD3 and […] for 3 days, and supernatant mixed with or without anti-IL-22 antibody was co-cultured with DLD1 cells for 24 h to test cell proliferation. F. Cell cyclin-dependent kinase and kinase inhibitors were analyzed by Real-Time PCR.\nThe identification of target genes for IL-22 is essential for the determination of the mechanism by which it promotes proliferation in colon cancer cells. As such, the relative mRNA levels in DLD-1 colon cancer cell line was examined by real time quantitative PCR. As expected, IL-22 reduced the expression of the cyclin-dependent kinase inhibitors: p16 (CDKN2A), p18 (CDKN2C), p19 (CDKN2D), p21 (CDKN1A), p27 (CDKN1B), p53 and p57 (CDKN1C).\nThe mRNAs were quantified by real-time RT-PCR. SYBR Green Master Mix was used to detect fluorescence. Relative expression was calculated according to the Ct value with normalization to GAPDH."}},
  "data": [
    {"substance": "IL-22: recombinant IL-22 (R&D systems), cytokine interleukin-22", "values": [
      {"measurement": "recruitment of STAT3 to the SUZ12 and EED promoter", "setting": "[1]; ChIP realtime PCR", "value": "significantly increased"},
      {"measurement": "STAT3 binding on the SOX2 promoter area", "setting": "[1]; DLD-1 with or without IL-22", "value": "increased"},
      {"measurement": "STAT3 binding to the DOT1L, AFF4 and MLLT3 promoter", "setting": "[1]; DLD-1 with or without IL-22", "value": "increased"},
      {"measurement": "expression of DOT1L, AFF4", "setting": "DOT1L, AFF4, MLLT10", "value": "consistently promoted"},
      {"measurement": "mRNA levels of cyclin A1, D1, D3, E1, E2 and CDK4", "setting": "[2]; DLD-1", "value": "increased"},
      {"measurement": "expression of cyclin-dependent kinase inhibitors p16, p18, p19, p21, p27, p53 and p57", "setting": "[2]; DLD-1, mRNA", "value": "reduced"}
    ]}
  ]
}
